Test results: patent US6953788B1, “3-mercaptoacetylamino-1,5-substituted-2-oxo-azepan derivatives useful as inhibitors of matrix metalloproteinase” (Aventis Pharmaceuticals Inc., priority 1996, dated 2005)

How the values were obtained:
MMP-3 (Stromelysin-1) = molecular target: T1, MMP-3 (Stromelysin-1) (Homo sapiens, UniProt P08254); experiment: Determination of inhibition constant (Ki) for MMP-3, fluorogenic substrate; format: biochemical; conditions: activated MMP-3, 37° C., pH 7.6
T1 construct: The active MMP-3 was obtained by treatment of proMMP-3 with trypsin; endogenous in cells; host or cells: human rheumatoid synovial fibroblasts stimulated with macrophage-conditioned medium (secreted into the culture medium)
T1 sequence (P08254 100-477): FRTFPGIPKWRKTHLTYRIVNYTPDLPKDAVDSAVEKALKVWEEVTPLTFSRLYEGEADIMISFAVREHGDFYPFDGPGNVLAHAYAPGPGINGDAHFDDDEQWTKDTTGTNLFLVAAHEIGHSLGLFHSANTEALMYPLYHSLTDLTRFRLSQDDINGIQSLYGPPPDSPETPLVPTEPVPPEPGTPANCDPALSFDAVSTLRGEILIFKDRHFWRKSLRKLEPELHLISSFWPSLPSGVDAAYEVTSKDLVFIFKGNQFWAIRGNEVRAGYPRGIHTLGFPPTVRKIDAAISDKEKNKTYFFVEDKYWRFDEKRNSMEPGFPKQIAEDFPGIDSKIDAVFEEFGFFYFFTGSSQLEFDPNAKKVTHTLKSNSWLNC
Description: Aliquots of the activated MMP-3 were stored at −20° C.
The activated MMP-3 is assayed using a fluorogenic substrate, Mca-Pro-Leu-Gly-Leu-Dpa-Ala-Arg-NH2, Knight, C. […] The increase in fluorescence due to cleavage of Gly-Leu peptide bond by MMP-3 was monitored with Perkin-Elmer LS50B Fluorimeter (λex328 nm, λem393 nm, excitation slit 2.5, emission slit 10). Substrate and inhibitor stock solutions were made in DMF and 0.1% HCl-DMF, respectively. […] The enzyme (10 μL of 0.2 μM MMP-3 dilution in assay buffer) was added at the last to start the reaction. […] Under these conditions, the measured Ki,app is close to true Ki.
(§1) The Ki for a competitive inhibitor is calculated using: v0/vi=(1+[I]/Ki,app) and Ki=Ki,app/(1+[S]/KM), where v0 is the initial rate in the absence of inhibitor, vi is the initial rate in the presence of inhibitor at the concentration of [I], [S] is the substrate concentration, and Km is the Michaelis constant. If slow binding is observed (i.e. if the approach to the binding equilibrium is slow), the final steady-state rate rather than the initial rate is taken as vi.

[1] = molecular target: T2, MMP-12 (macrophage metalloelastase) (Homo sapiens, UniProt P39900); experiment: Determination of inhibition constant (Ki) for MMP-12, fluorogenic substrate; format: biochemical; conditions: 25C., pH 7.6
T2 construct: made in house
T2 sequence (P39900 106-263 limits assumed): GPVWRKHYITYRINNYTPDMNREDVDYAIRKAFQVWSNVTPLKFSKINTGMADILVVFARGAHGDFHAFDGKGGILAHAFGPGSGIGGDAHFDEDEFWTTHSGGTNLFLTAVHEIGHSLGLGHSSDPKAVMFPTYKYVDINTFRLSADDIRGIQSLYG
Description: as §1

Compound | Ki (MMP-3 (Stromelysin-1)) | Ki [1]
CNC(=O)[C@H](Cc1ccccc1)N1CCN(Cc2ccccc2)C[C@H](NC(=O)[C@@H](S)CCCCN2C(=O)c3ccccc3C2=O)C1=O (relative stereo) [IV-1, 2H-Isoindole-2-hexanamide, N-[hexahydro-4-[2-(methylamino)-2-oxo-1-(phenylmethyl)ethyl]-5-oxo-1-(phenylmethyl)-1H-1,4-diazepin-6-yl]-1,3-dihydro-α-mercapto-1,3-dioxo-, [6S-[4(R*), 6R*(R*)]]-] | 210 nM | 
CNC(=O)C(Cc1ccccc1)N1CCC(c2ccccc2)CC(NC(=O)C(S)CCCCN2C(=O)c3ccccc3C2=O)C1=O (stereo not drawn) [III-1, 2H-Isoindole-2-hexanamide, N-[hexahydro-1-[2-(methylamino)-2-oxo-1-(phenylmethyl)ethyl]-2-oxo-5-phenyl-1H-azepin-3-yl]-1,3-dihydro-α-mercapto-1,3-dioxo-, [3S-[1(R*), 3α, 5β]]-] | 73 nM | 53 nM
